Source: PMC9781087, “Discovery of New Microbial Collagenase Inhibitors” (Life, 2022)
Where two headings read alike, the source gives them in different places.

Molecular target: collagenase A (ColA) (Clostridium perfringens, UniProt P43153)
Assay: biochemical
Parameters: species or system C. perfringens
Conditions: for Inhibition (%) on ColA: after 30 min of incubation
[1] = read-out: Inhibition(%) on ColA
[2] = read-out: Inhibition (%) on ColA
[3] = 5 µM, mean ± SD of three replications
[4] = 100 µM, preliminary screening (Table S1), * = compound precipitated due to low solubility

Chain of collagenase A (ColA) (P43153 87-1104 limits assumed): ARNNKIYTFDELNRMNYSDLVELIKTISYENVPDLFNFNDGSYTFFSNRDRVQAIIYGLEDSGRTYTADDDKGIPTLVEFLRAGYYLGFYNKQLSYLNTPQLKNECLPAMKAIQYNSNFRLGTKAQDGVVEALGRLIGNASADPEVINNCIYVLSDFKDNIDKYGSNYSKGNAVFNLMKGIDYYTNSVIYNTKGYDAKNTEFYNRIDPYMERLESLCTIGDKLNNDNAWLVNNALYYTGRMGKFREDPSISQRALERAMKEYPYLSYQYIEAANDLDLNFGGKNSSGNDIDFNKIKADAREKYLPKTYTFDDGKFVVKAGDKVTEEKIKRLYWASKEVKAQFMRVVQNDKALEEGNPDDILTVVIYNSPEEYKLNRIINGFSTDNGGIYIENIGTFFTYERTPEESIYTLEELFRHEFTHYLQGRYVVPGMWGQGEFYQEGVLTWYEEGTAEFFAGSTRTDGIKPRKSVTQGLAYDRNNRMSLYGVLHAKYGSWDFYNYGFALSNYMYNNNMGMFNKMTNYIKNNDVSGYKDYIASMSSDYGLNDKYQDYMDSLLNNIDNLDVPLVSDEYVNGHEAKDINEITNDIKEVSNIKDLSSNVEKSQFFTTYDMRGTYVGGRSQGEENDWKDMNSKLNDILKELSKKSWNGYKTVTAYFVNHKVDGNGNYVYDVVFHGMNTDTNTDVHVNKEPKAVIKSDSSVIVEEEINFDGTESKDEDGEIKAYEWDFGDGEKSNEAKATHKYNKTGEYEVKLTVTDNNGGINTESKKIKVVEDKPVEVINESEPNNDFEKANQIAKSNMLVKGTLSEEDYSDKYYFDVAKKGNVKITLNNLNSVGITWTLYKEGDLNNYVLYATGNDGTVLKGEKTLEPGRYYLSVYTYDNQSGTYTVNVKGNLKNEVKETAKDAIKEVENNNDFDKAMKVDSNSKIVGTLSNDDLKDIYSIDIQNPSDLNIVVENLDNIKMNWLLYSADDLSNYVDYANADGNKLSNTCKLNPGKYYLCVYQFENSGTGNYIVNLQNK

CC(NS(=O)(=O)c1cccc(Cl)c1)C(=O)O (racemic) [N-(3-chlorophenylsulfonyl)-DL-alanine]
inhibition at 100 µM [1]: -19.2%

O=C(O)C1NCCc2c1[nH]c1ccccc21 (stereo not drawn) [1,2,3,4-tetrahydro-beta-carboline-1-carboxylic acid]
inhibition at 100 µM [1]: 1.5%

Nc1ccc2c(c1N)C(=O)c1ccccc1C2=O [1,2-diaminoanthraquinone]
inhibition at 100 µM [1]: 4.3%

O=C1c2ccccc2C(=O)c2c(O)ccc(O)c21 [1,4-dihydroxyanthraquinone]
inhibition at 100 µM [1]: 3.2%

O=C(O)C1CCCN1S(=O)(=O)c1cccc(C(F)(F)F)c1 (stereo not shown) [1-{[3-(trifluoromethyl)phenyl]sulfonyl}-2-pyrrolidinecarboxylic acid]
inhibition at 100 µM [1]: 0.7%

O=C(/C=C/c1ccccc1)c1ccccc1O [2′-Hydroxychalcone, 2′-hydroxychalcone]
inhibitory effect on ColA (in words): potent inhibitory effect
Inhibition (%) on ColA (100 µM, mean ± SD of three replications (five-dose assay)): Almost complete inhibition
inhibition at 1 µM [2]: -12.1 ± 0.2%
inhibition at 5 µM [2]: 1.2 ± 0.9%
inhibition at 10 µM [2]: 6.5 ± 1.3%
inhibition at 50 µM [2]: 21.8 ± 1.2%
inhibition at 100 µM [2]: 97.3 ± 1.3%
inhibition at 100 µM [1]: 87.8%

O=c1c(O)c(-c2ccccc2)oc2ccc(O)cc12 [3,6-dihydroxyflavone]
inhibitory effect on ColA (in words): low inhibitory effects
inhibition at 100 µM [1]: 2.7%

O=c1c(O)c(-c2ccccc2)oc2ccccc12 [3-Hydroxyflavone, 3-hydroxyflavone]
inhibitory effect on ColA (in words): low impact on the enzyme activity
inhibition at 1 µM [2]: -13.4 ± 2.7%
inhibition at 5 µM [2]: -17 ± 5.1%
inhibition at 10 µM [2]: 17.4 ± 4.5%
inhibition at 50 µM [2]: 25.1 ± 6.8%
inhibition at 100 µM [2]: 31 ± 4.3%
inhibition at 100 µM [1]: 27.6%

O=C(O)C=Cc1cccc(O)c1 [3-hydroxycinnamic acid]
inhibition at 100 µM [1]: 0.8%

O=c1oc(-c2ccccc2)cc2ccccc12 [3-phenyl-1H-2-benzopyran-1-one]
inhibition at 100 µM [1]: 0.2%

COc1ccc(-c2oc3ccccc3c(=O)c2O)cc1 [4'-methoxyflavonol, 4′-methoxyflavonol]
inhibition at 100 µM [1]: 3.7%

Oc1cc(O)nc(S)n1 [4,6-dihydroxy-2-mercaptopyrimidine]
inhibition at 100 µM [1]: -7.2%

Cc1ccc(S(=O)(=O)NC(N)=O)cc1 [4-methylphenylsulfonylurea]
inhibition at 100 µM [1]: 19.6%

O=c1cc(-c2ccc(O)cc2)oc2cccc(O)c12 [4′,5-Dihydroxyflavone, 4′,5-dihydroxyflavone]
IC50 (in words): nanomolar range
inhibitory effect on ColA (in words): potently inhibits its activity
Inhibition (%) on ColA [3]: Almost complete inhibition
inhibition at 1 µM [2]: -48 ± 3.6%
inhibition at 5 µM [2]: 101.6 ± 0.6%
inhibition at 10 µM [2]: 107.5 ± 1%
inhibition at 50 µM [2]: 101 ± 1.9%
inhibition at 100 µM [2]: 105 ± 2.9%
inhibition at 100 µM [1]: 15%

O=c1ccc2cc(O)ccc2o1 [6-hydroxycoumarin]
inhibition at 100 µM [1]: 12.5%

COc1ccc2[nH]c3c(c2c1)CCNC3C(=O)O (stereo not shown) [6-methoxy-1,2,3,4-tetrahydro-9H-pyrido [3,4-b]indole-1-carboxylic acid]
inhibition at 1 µM [2]: -19.9 ± 2.7%
inhibition at 5 µM [2]: -1.3 ± 2.1%
inhibition at 10 µM [2]: -5.2 ± 0.7%
inhibition at 50 µM [2]: 2.8 ± 1.3%
inhibition at 100 µM [2]: 19.6 ± 3.9%
inhibition at 100 µM [1]: 18.8%

COc1ccc2oc(-c3ccccc3)c(O)c(=O)c2c1 [6-methoxyflavonol]
inhibition at 100 µM [1]: 10.7%

COc1ccc(-c2coc3cc(O)cc(O)c3c2=O)cc1 [Biochanin A, biochanin A]
inhibitory effect on ColA (in words): potent inhibitory effect
Inhibition (%) on ColA (50 µM, mean ± SD of three replications): Almost complete inhibition
inhibition at 1 µM [2]: -24.8 ± 5.3%
inhibition at 5 µM [2]: 23 ± 2.6%
inhibition at 10 µM [2]: 34.1 ± 2.2%
inhibition at 50 µM [2]: 99.1 ± 1%
inhibition at 100 µM [2]: 76.1 ± 0.7%
inhibition at 100 µM [1]: 57.9%

COc1cc(CNC(=O)CCCC/C=C/C(C)C)ccc1O [Capsaicin, capsaicin, reference compound]
IC50 (in words): nanomolar range
Inhibition (%) on ColA (1 µM, mean ± SD of three replications, 1 µM): 94.8 ± 0.8%
Inhibition (%) on ColA (1 µM, mean ± SD of three replications, listed as capsaicin, 1 µM): Almost complete inhibition
Inhibition (%) on ColA [3]: 100.5 ± 0.8%
Inhibition (%) on ColA [4]: 87.9%

NC(=O)NCCC[C@H](N)C(=O)O [Citrulline, citrulline]
inhibition at 1 µM [2]: -4.3 ± 3.5%
inhibition at 5 µM [2]: -14.1 ± 1.4%
inhibition at 10 µM [2]: 27.8 ± 3%
inhibition at 50 µM [2]: 24.3 ± 1.7%
inhibition at 100 µM [2]: 7.2 ± 0.5%
inhibition at 100 µM [1]: 6.8%

COc1cc(/C=C/C(=O)CC(=O)/C=C/c2ccc(O)c(OC)c2)ccc1O [Curcumin, curcumin]
inhibitory effect on ColA (in words): very potent ColA inhibitor
Inhibition (%) on ColA [3]: Almost complete inhibition
inhibition at 1 µM [2]: -10 ± 3.9%
inhibition at 5 µM [2]: 101.8 ± 0.6%
inhibition at 10 µM [2]: 102.5 ± 0.8%
inhibition at 50 µM [2]: 101.5 ± 0.4%
inhibition at 100 µM [2]: 101.8 ± 0.7%
inhibition at 100 µM [1]: 102%

NC(=O)NCCC[C@H](NC(=O)OCC1c2ccccc2-c2ccccc21)C(=O)O [Fmoc-L-citrulline]
Inhibition (%) on ColA [4]: 20.8%

C[C@H](N)C(=O)O [L-alanine]
inhibition at 100 µM [1]: 3.1%

O=c1c(O)c(-c2cc(O)c(O)c(O)c2)oc2cc(O)cc(O)c12 [Myricetin, myricetin]
inhibitory effect on ColA (in words): low inhibitory effect
inhibition at 1 µM [2]: -15.4 ± 2.7%
inhibition at 5 µM [2]: -4.5 ± 1.1%
inhibition at 10 µM [2]: -1 ± 1.1%
inhibition at 50 µM [2]: 13.6 ± 0.6%
inhibition at 100 µM [2]: 23.2 ± 2%
inhibition at 100 µM [1]: 27.6%

O=c1cc(-c2ccccc2)oc2cccc(O)c12 [Primuletin, primuletin]
inhibitory effect on ColA (in words): low impact on the enzyme activity
inhibition at 1 µM [2]: -9.3 ± 1.7%
inhibition at 5 µM [2]: -8.8 ± 2.1%
inhibition at 10 µM [2]: -0.7 ± 1.3%
inhibition at 50 µM [2]: 8.5 ± 2.1%
inhibition at 100 µM [2]: 25.4 ± 1.8%
inhibition at 100 µM [1]: 33.1%

O=C(O)c1cc(O)c2c(c1)C(=O)c1cccc(O)c1C2=O [Rhein, rhein]
inhibitory effect on ColA (in words): potent inhibitors of ColA
inhibition at 1 µM [2]: 2.6 ± 0.6%
inhibition at 5 µM [2]: 22.9 ± 2.7%
inhibition at 10 µM [2]: 37.4 ± 3.2%
inhibition at 50 µM [2]: 77.3 ± 2.2%
inhibition at 100 µM [2]: 80.6 ± 1%
inhibition at 100 µM [1]: 78.5%

CC(=O)NCCCS(=O)(=O)O [acamprosate calcium, reference compound]
inhibition at 100 µM [1]: 17.2%

CC(=O)c1ccc(S(=O)(=O)NC(=O)NC2CCCCC2)cc1 [acetohexamide, reference compound]
inhibition at 100 µM [1]: 16.6%

CC(=O)N[C@@H](CS)C(=O)O [acetylcysteine, reference compound]
inhibition at 100 µM [1]: 3.4%

O=C1c2c(O)cccc2C([C@@H]2O[C@H](CO)[C@@H](O)[C@H](O)[C@H]2O)c2cc(CO)cc(O)c21 (stereo partly shown) [aloin]
inhibition at 100 µM [1]: 4.4%

O=c1cc(-c2ccc(O)cc2)oc2cc(O)cc(O)c12 [apigenin]
inhibition at 100 µM [1]: 2.7%

CC1CNc2c(cccc2S(=O)(=O)N[C@@H](CCCNC(=N)N)C(=O)N2CC[C@@H](C)C[C@@H]2C(=O)O)C1 (stereo partly shown) [argatroban, reference compound]
inhibition at 100 µM [1]: -12.3%

C[C@@H]1CC[C@H]2[C@@H](C)C(=O)O[C@@H]3O[C@@]4(C)CC[C@@H]1[C@]32OO4 [artemisinin, reference compound]
inhibition at 100 µM [1]: 5.6%

NS(=O)(=O)c1cc2c(cc1C(F)(F)F)NC(Cc1ccccc1)NS2(=O)=O (stereo not shown) [bendroflumethiazide, reference compound]
inhibition at 100 µM [1]: 21.6%

C/C(=C(\CCOP(=O)(O)O)SC(=O)c1ccccc1)N(C=O)Cc1cnc(C)nc1N [benfotiamine, reference compound]
inhibition at 100 µM [1]: -20.4%

CCOC(=O)[C@H](CCCNC(=N)N)NC(=O)c1ccccc1.Cl [benzoyl-L-arginine ethyl ester hydrochloride]
Inhibition (%) on ColA [4]: -6.6%

COc1ccc2cc3[n+](cc2c1OC)CCc1cc2c(cc1-3)OCO2 [berberine]
inhibition at 100 µM [1]: -2.5%

O=C(O)/C=C/c1ccc(O)c(O)c1 [caffeic acid]
inhibitory effect on ColA (in words): low effects
inhibition at 100 µM [1]: -3.8%

C[C@@]12C(=O)OC(=O)[C@]1(C)[C@H]1CC[C@@H]2O1 [cantharidin]
inhibition at 100 µM [1]: 26.8%

C[C@H](CS)C(=O)N1CCC[C@H]1C(=O)O [captopril, reference compound]
inhibition at 100 µM [1]: 5.2%

O=C(/C=C/c1ccc(O)c(O)c1)O[C@@H]1C[C@](O)(C(=O)O)C[C@@H](O)[C@H]1O [chlorogenic acid]
inhibition at 100 µM [1]: 4.8%

O=c1cc(-c2ccccc2)oc2cc(O)cc(O)c12 [chrysin]
inhibitory effect on ColA (in words): low inhibitory effects
inhibition at 100 µM [1]: -3.4%

Cc1cc(O)c2c(c1)C(=O)c1cccc(O)c1C2=O [chrysophanol]
inhibition at 100 µM [1]: -11.1%

Cl.NCCS [cysteamine hydrochloride, reference compound]
Inhibition (%) on ColA [4]: 2.8%

N[C@@H](CS)C(=O)O [cysteine]
inhibition at 100 µM [1]: 1.7%

COc1ccc(-c2coc3cc(OC)ccc3c2=O)cc1 [daidzein dimethyl ether]
Inhibition (%) on ColA [4]: 15.7%

O=c1c(-c2ccc(O)cc2)coc2cc(O)ccc12 [daidzein]
inhibition at 100 µM [1]: 5.8%

Oc1cc(O)c2c(c1)O[C@H](c1ccc(O)c(O)c1)[C@H](O)C2 [epicatechin]
inhibition at 100 µM [1]: 3.6%

O=c1ccc2cc(O)c(O)cc2o1 [esculetin]
inhibitory effect on ColA (in words): low effects
inhibition at 100 µM [1]: 11.8%

CC(O)(P(=O)(O)O)P(=O)(O)O [etidronic acid, reference compound]
inhibition at 100 µM [1]: 23%

O=C(O)c1cc(O)c(O)c(O)c1 [gallic acid]
inhibition at 100 µM [1]: -21.4%

O=c1c(-c2ccc(O)cc2)coc2cc(O)cc(O)c12 [genistein]
inhibition at 100 µM [1]: -1.1%

COc1cc(-c2oc3cc(O)cc(O)c3c(=O)c2O)ccc1O [isorhamnetin]
inhibition at 100 µM [1]: 19.9%

Cc1cc(NC(=O)C2=C(O)c3ccccc3S(=O)(=O)N2C)no1 [isoxicam, reference compound]
inhibition at 100 µM [1]: -10.1%

O=C1C=C(O)C(=O)c2ccccc21 [lawsone]
inhibition at 100 µM [1]: -6.1%

O=C(O)[C@@H](S)[C@@H](S)C(=O)O [meso-2,3-dimercaptosuccinic acid, reference compound]
inhibition at 100 µM [1]: 25.6%
